{"source": "patent US20070148765A1", "about": "“Preservative-containing virus formulations” (priority 2003, published 2007)", "key": {"[1]": {"experiment": "Solubility of preservative in A195 buffer", "format": "physicochemical"}, "[2]": {"system": "S. aureus, P. aeruginosa, E. coli, C. albicans, A. niger", "experiment": "Antimicrobial effectiveness (AME) testing, overall result", "conditions": "formulated in A195 buffer"}, "adenovirus": {"system": "adenovirus", "experiment": "QPA assay for adenovirus infectivity (stability of adenovirus in formulation)", "format": "cell-based, adenovirus serotype 5 (Ad5)", "conditions": "for Ad5 stability in the presence of preservative: in A195 buffer with the preservative, short-term accelerated stability, infectivity assays", "experimental": "QPA Assay for Adenovirus Infectivity—The compatibility of preservatives with adenovirus was assessed by measuring the infectivity adenovirus using QPA assay. The QPA assay is based on the finding that the quantity of replicating adenoviral genomes, upon infection of 293 cells, is proportional to the input quantity of infectious adenovirus 24 hours post-infection (P.I.). The accumulated adenoviral genomes are purified using Qiagen 96-well Blood DNA Extraction Kit 24 hrs P.I. and quantitated using Perkin-Elmer TaqMan PCR technology. A standard curve is constructed by using the TaqMan PCR cycle threshold (CT) reflecting the quantity of accumulated adenoviral genomes due to infection and subsequent replication as a function of the input viral infectivity of standard curve material that is determined by independent TCID50 potency assay. The infectivity of samples is interpolated from the standard curve. Infectivity can be determined within 48-72 hours using this procedure. To determine the loss of adenovirus infectivity in stability samples the infectivity of the stability sample and the corresponding −70° C. control of the same formulation are determined during the same QPA run and on the same PCR plate. The loss of infectivity in the stability samples is expressed as log loss of infectivity compared to the −70° C. control.\nResults—Adenovirus was formulated in A195 buffer containing preservatives (i.e., the A500 series of Table 3). The infectivity of adenovirus was measured using a Q-PCR based Potency Assay (QPA) after storage at certain temperatures (2-8, 15, 20, 25, 30, and 37° C.) and compared to the control (corresponding sample stored at −70° C.). The stability of adenovirus was quantitatively presented as “Log Loss of Adenovirus Infectivity”. Variability of the QPA assay is reported to be +/−0.15 logs."}}, "note": "Entries after “also recorded” stand apart in the source; their conditions may differ."}
{"smiles": "Cc1cccc(O)c1", "note": "[m-cresol]", "values": [{"measurement": "solubility in A195 buffer", "setting": "[1]", "result": "poor solubility"}, {"measurement": "AME testing, overall result in words", "setting": "[2]", "result": "effective antimicrobial preservatives"}]}
{"smiles": "OCc1ccccc1", "note": "[benzyl alcohol]", "values": [{"measurement": "AME testing, overall result in words", "setting": "[2]", "result": "effective antimicrobial preservatives"}, {"measurement": "Ad5 stability in the presence of preservative", "setting": "adenovirus", "result": "very poor stability"}]}
{"smiles": "O=C(O)c1ccccc1", "note": "[benzoic acid]", "values": [{"measurement": "AME testing, overall result in words", "setting": "[2]", "result": "failed AME testing"}, {"measurement": "effects on the stability of adenovirus (log loss of infectivity, FIG. 1)", "setting": "adenovirus; 0.5% (w/v) chlorobutanol or 0.2% (w/v) benzoic acid in A195 pH 6.8, MRKAd5pol 10^10 VP/ml, 37° C. 1-4 weeks vs −70° C.", "result": "no significant effects"}, {"measurement": "Ad5 stability in the presence of preservative", "setting": "adenovirus", "result": "compatible with adenovirus; also recorded: compatible with Ad5"}]}
{"smiles": "Oc1ccccc1", "note": "[phenol]", "values": [{"measurement": "AME testing, overall result in words", "setting": "[2]", "result": "effective antimicrobial preservatives"}, {"measurement": "Ad5 stability in the presence of preservative", "setting": "adenovirus", "result": "very unstable"}]}
{"smiles": "CC(C)(C)CC(C)(C)c1ccc(OCCOCC[N+](C)(C)Cc2ccccc2)cc1", "note": "[benzethonium chloride]", "values": [{"measurement": "AME testing, overall result in words", "setting": "[2]", "result": "effective antimicrobial preservatives"}]}
